Square brackets hold non-standard residues; d marks the D form. * marks the point of attachment. Myristoyl = CCCCCCCCCCCCCC(=O)*
Columns and labels:
[1] = tested on: nutritionally induced type 2 diabetes in Psammomys obesus; experiment: Nutritionally induced diabetes in Psammomys obesus model: whole blood glucose by glucometer; type: in vivo; conditions: diabetic Psammomys on high energy diet; three intraperitoneal injections of 10 mg/kg, 5 days apart
Protocol: Psammomys obesus gerbils males or females weighing 160-200 g in the fed state were used. […] The animals were then injected intraperitoneally with 10 mg/kg of the peptide dissolved in dimethylsulphoxide solvent (or with solvent alone in controls). […] Whole blood glucose was measured by a glucometer on a minidroplet of blood withdrawn from the end of the tail. Three injections were given 5 days apart and after 14 days or earlier the high blood glucose levels of the animals became normal, the controls remained at the 300-400 mg/dl level. The normal level lasted at least for 3 to 5 days after the last injection. […] The line with asterisk represents the control animal. Other lines are those of individual injected animals.

pancreatic beta cells = experiment: Histology (hematoxylin-eosin) and insulin immunostaining of pancreatic beta cells; type: in vivo, Psammomys obesus; conditions: diabetic Psammomys, peptide treatment for 14 days
Protocol: For assaying the insulin signaling pathway components and electronmicroscopic examination of the pancreatic beta cells, animals were killed by decapitation in the fed state in the morning three days after the third intraperitoneal peptide injection. Blood was collected and serum insulin levels was determined by radioimmunoassay, using anti-human antibodies. The gastrocnemius muscles from both legs were excised, immediately frozen in liquid nitrogen, and then stored at −80° C. The electronmicroscopic examination of pancreatic beta cells was performed on slices of pancreatic paraffin blocks according to the method of Joins et al., 2002, Virchovs Arch 440: 63-69. The histologic and immunostaining properties of the pancreatic beta cells in diabetic Psammomys gerbils injected with peptide 12 were investigated in order to check whether the beta cells are protected from hyperglycemia. […] FIGS. 5A and 5B describe representative hematoxylin-eosin stained beta cell and insulin immunostained beta cells in diabetic and treated animals.

[2] = tested on: serine phosphorylation of IRS by PKC; experiment: Immunoblot of serine phosphorylation of IRS in muscle lysates; type: in vivo, Psammomys obesus; conditions: treated vs non-treated animal
Protocol: (§1) For assaying the insulin signaling pathway components and electronmicroscopic examination of the pancreatic beta cells, animals were killed by decapitation in the fed state in the morning three days after the third intraperitoneal peptide injection. Blood was collected and serum insulin levels was determined by radioimmunoassay, using anti-human antibodies. The gastrocnemius muscles from both legs were excised, immediately frozen in liquid nitrogen, and then stored at −80° C.
(§2) Immunoblot analysis of insulin signaling molecules were performed using muscle homogenates prepared in a homogenization buffer that contained 20 mmol/l HEPES, 8 mmol/l EDTA, 0.2 mmol/l Na3VO4, 10 mmol/l Na4P2O7, 2.5 mmol/l, 2 mM phenylmathylsulfonyl fluorid, 160 mmol/l NaF, 2 mmol/l DCA, 1% Triton X-100, 1% protease inhibitor cocktail and 1% phaphatase inhibitor cocktail (Sigma®) pH 7.4. Equal amount of cell lysate were dissolved in Laemmli buffer and subjected to SDS-PAGE gel separation. The separated proteins were transferred to nitrocellulose membranes. […] All protein data were quantified by densitometry. […]
(§3) The extent of phosphorylation of the components of the insulin signaling pathway (signal proteins) in the muscle lysates of the treated and non-treated animals “ ” was investigated. FIG. 6 presents the relative extent of serine phosphorylation of IRS by PKC as determined by immunobloting with a specific antibody. […]

PKB/AKT = experiment: Immunoblot of serine phosphorylation of PKB/AKT in muscle lysates; type: in vivo, Psammomys obesus; conditions: treated vs non-treated animal
Protocol: as §1, §2, §3

[3] = tested on: glucose transporter GLUT4 protein; experiment: Immunoblot of GLUT4 protein amount in muscle lysates; type: in vivo, Psammomys obesus; conditions: treated vs non-treated animal
Protocol: as §1, §2, §3

Substance | hypoglycemic effect (blood glucose) [1] | immunostainable insulin content of the pancreatic beta cells (pancreatic beta cells) | beta cell structure (pancreatic beta cells; hematoxylin-eosin staining) | relative extent of serine phosphorylation of IRS by PKC [2] | relative extent of phosphorylation of serine in PKB/AKT (PKB/AKT) | relative amount of the glucose transporter GLUT4 protein [3]
myristoyl-Gly-Asn-Leu-Met-Phe-Gln-Ile-Gln-Arg-Ser-Arg-Lys-Phe-amide (Myristoyl-GNLMFQIQRSRKF-NH2; SMILES CCCCCCCCCCCCCC(=O)NCC(=O)N[C@@H](CC(N)=O)C(=O)N[C@@H](CC(C)C)C(=O)N[C@@H](CCSC)C(=O)N[C@@H](Cc1ccccc1)C(=O)N[C@@H](CCC(N)=O)C(=O)N[C@H](C(=O)N[C@@H](CCC(N)=O)C(=O)N[C@@H](CCCNC(=N)N)C(=O)N[C@@H](CO)C(=O)N[C@@H](CCCNC(=N)N)C(=O)N[C@@H](CCCCN)C(=O)N[C@@H](Cc1ccccc1)C(N)=O)[C@@H](C)CC) [peptide 16, myristoylated peptide analog derived from the αD region of PKC-ε] | hypoglycemic effect | – | – | – | – | –
myristoyl-Gly-Met-Ala-(D)Lys-Gln-Pro-Pro-Phe-amide (Myristoyl-GMA[dK]QPPF-NH2; SMILES CCCCCCCCCCCCCC(=O)NCC(=O)N[C@@H](CCSC)C(=O)N[C@@H](C)C(=O)N[C@H](CCCCN)C(=O)N[C@@H](CCC(N)=O)C(=O)N1CCC[C@H]1C(=O)N1CCC[C@H]1C(=O)N[C@@H](Cc1ccccc1)C(N)=O) [peptide 7, myristoylated peptide analog derived from the HJ region of PKC-ε] | hypoglycemic effect | – | – | – | – | –
myristoyl-Gly-Phe-Gln-Ile-Gln-Arg-Ser-Arg-Lys-Phe-Asn-amide (Myristoyl-GFQIQRSRKFN-NH2; SMILES CCCCCCCCCCCCCC(=O)NCC(=O)N[C@@H](Cc1ccccc1)C(=O)N[C@@H](CCC(N)=O)C(=O)N[C@H](C(=O)N[C@@H](CCC(N)=O)C(=O)N[C@@H](CCCNC(=N)N)C(=O)N[C@@H](CO)C(=O)N[C@@H](CCCNC(=N)N)C(=O)N[C@@H](CCCCN)C(=O)N[C@@H](Cc1ccccc1)C(=O)N[C@@H](CC(N)=O)C(N)=O)[C@@H](C)CC) [peptide 12, myristoylated peptide analog derived from the αD region of PKC-ε] | hypoglycemic effect | replenished | markedly improved | much lower | reduced | elevated
